Laboratory results reported in PMC12670408, “Backbone Alterations in Cyclic Peptides Influence Both Membrane Permeability and Biological Activity” (Journal of Medicinal Chemistry, 2025).
Read-outs that look alike come from different tables or passages of the source. One block for each compound: values may come before it. Numbered stars: 1 amine (or outer) side, 2 acyl side, 3 side chain; on linkers, the order of the positions; unused ones are H or OH. Square brackets hold non-standard residues; d marks the D form. Peptide text beside a SMILES is read from it. Ile(ψThz) = CC[C@H](C)[C@H](N[*:1])c1nc(C(=O)[*:2])cs1

Tests used:
[1] = CHI-IAM chromatography (immobilized artificial membrane); type: physicochemical; conditions: IAM.PC.DD2 column, ammonium acetate buffer pH 7.4
Text: With all peptides in hand we first set out to estimate their passive membrane permeability using the immobilized artificial membrane (IAM) chromatography technique. , An IAM column is packed with a reverse phase like material modified with phospholipids to mimic a cellular membrane. After analysis of a compound its retention time is compared to a set of calibration compounds to yield a CHI-IAM value. A higher value indicates a stronger membrane interaction, which can be correlated to passive membrane permeability.
CHI-IAM chromatography was carried out on an Agilent 1200 Series LC (Agilent Technologies, USA) equipped with a 4.6 mm × 100 mm to 150 mm IAM.PC.DD2 column from Regis Technologies, Inc., eluting at 1.5 mL/min, eluting over a gradient of 0% – 85% MeCN with a 50 mM ammonium acetate buffer adjusted to pH 7.4 over 4.75 min.

[2] = Variable-temperature 1H-NMR of amide protons; type: physicochemical
Protocol: The solvent exposure of peptide backbone NH groups can be studied using variable temperature ^1H-NMR experiments, where the change in chemical shift of the amide protons is observed upon increasing temperature. […] These experiments were performed for compounds SA-A1, SA-B1, SA-B2, and SA-B3 in both DMSO-d6, as a mimic of a polar environment, and CDCl3, as a mimic of the hydrophobic membrane environment (Figures S2–S9, and Tables and ). […] For SA-B3 the Ile-6 amide was also more exposed to solvent, but the change in Phe-2 shift was much smaller.
Variable-temperature nuclear magnetic resonance (VT-NMR) measurements were conducted using a Bruker Avance Neo 600 (av600) spectrometer equipped with a CP2.1 TMO 600 S3 cryoprobe. The ^1H NMR data was collected over a temperature range from 293.15 to 323.15 K, with temperature increments of 5 °C.

H-D exchange NMR = type: physicochemical; conditions: 20% D2O and 80% DMSO-d6
Text: To further confirm the solvent accessibility of the amides we performed H-D exchange experiments using SA-A1, SA-B1, and SA-B3 by adding 20% D2O to samples dissolved in DMSO-d 6 (Table and Figures S10–S12). The rate of exchange of the amide proton for deuterium is an indicator of solvent accessibility. […] In line with their observations, the Ala-1 NH exchanges rather fast in SA-A1, which is in stark contrast to Ala-1 in SA-B1 and SA-B3 where it is fully stable. […] The Ile-4 amide is always strongly shielded which is in line with it being involved in a stable hydrogen bond with the Ala-1 carbonyl group as for SA-A1. […] Unfortunately, for SA-B3 this peak overlapped with aromatic peaks prohibiting quantification.
The samples were dissolved in DMSO-d 6 and 20% D2O was added. Immediately after ^1H NMR data was collected at 0, 10, 20, 30, and 240 min. The peak area was normalized to a peak of constant height.

U2OS cells = experiment: Cell painting assay (induction, cell count); type: cell-based
Protocol: Therefore, we subjected our set of compounds to the cell painting assay that is agnostic toward specific biological targets. In our cell-painting setup, the compounds were tested at different concentrations (10, 30, and 50 μM) in U2OS cells followed by treatment with dyes for mitochondria (Mito Tracker Deep Red), endoplasmic reticulum (concanavalin-Alexa488 conjugate), actin, (Phalloidin-Alexa594 conjugate), DNA (Hoechst 33342), nucleoli and cytoplasmic RNA (SYTO 14), and Golgi and plasma membranes (WGA-Alexa594 conjugate). Next, the cells were imaged in various channels at 9 sites per well and a total of 579 morphological parameters were extracted. An induction score was calculated from this analysis, which represents the number of parameters for which the change was significant in comparison to the DMSO control.
The described assay follows closely the method described by Bray et al.
Initially, 5 μL U2OS medium were added to each well of a 384-well plate (Revvity PhenoPlate 384). Subsequently, U2OS cell were seeded with a density of 1600 cells per well in 20 μL medium. The plate was incubated for 10 min at ambient temperature, followed by an additional 4 h incubation (37 °C, 5% CO2). […] Incubation with compound was performed for 20 h (37 °C, 5% CO2). Subsequently, mitochondria were stained with Mito Tracker Deep Red (Thermo Fisher Scientific, Cat. No. M22426). The Mito Tracker Deep Red stock solution (1 mM) was diluted to a final concentration of 100 nM in prewarmed medium. The medium was removed from the plate leaving 10 μL residual volume and 25 μL of the Mito Tracker solution were added to each well. The plate was incubated for 30 min in darkness (37 °C, 5% CO2). To fix the cells 7 μL of 18.5% formaldehyde in PBS were added, resulting in a final formaldehyde concentration of […]. Subsequently, the plate was incubated for another 20 min in darkness (RT) and washed three times with 70 μL of PBS. (Agilent Washer Elx405). Cells were permeabilized by addition of 25 μL 0.1% Triton X-100 to each well, followed by 15 min incubation (RT) in darkness. The cells were washed three times with PBS leaving a final volume of 10 μL. To each well 25 μL of a staining solution were added, which contains 1% BSA, 5 μL/ml Phalloidin (Alexa594 conjugate, Thermo Fisher Scientific, A12381), 25 μg/mL Concanavalin A (Alexa488 conjugate, Thermo Fisher Scientific, Cat. No. C11252), 5 μg/mL Hoechst 33342 (Sigma, Cat. No. B2261–25 mg), 1.5 μg/mL WGA-Alexa594 conjugate (Thermo Fisher Scientific, Cat. No. W11262) and 1.5 μM SYTO 14 solution (Thermo Fisher Scientific, Cat. No. S7576). The plate is incubated for 30 min (RT) in darkness and washed three times with 70 μL PBS. After the final washing step, the PBS was not aspirated. The plates were sealed and centrifuged for 1 min at 50g.
The generated images were processed with the CellProfiler package (https://cellprofiler.org/, version 3.0.0) on a computing cluster of the Max Planck Society to extract 1716 cell features per microscope site. The data was then further aggregated as medians per well (9 sites → 1 well), then over the three replicates.
From the total set of 1716 features, a subset of highly reproducible and robust features was determined using the procedure described by Woehrmann et al. in the following way: Two biological repeats of one plate containing reference compounds were analyzed. For every feature, its full profile over each whole plate was calculated.
The phenotypic profiles were compiled from the Z-scores of all individual cellular features, where the Z-score is a measure of how far away a data point is from a median value.

[3] = cited from earlier work
[4] = set-up: method as in Nielsen et al.; conditions: D2O (10%)/DMSO-d6 (90%), value in brackets, ref Nielsen et al.; cited from earlier work
[5] = set-up: method as in Fairlie group; conditions: ref Fairlie group; cited from earlier work
[6] = CDCl3, value in brackets, ref Bockus et al.
[7] = DMSO-d6, value in brackets, ref Nielsen et al.

CHI-IAM [1]: 39.71 ± 0.16 | ΔδNH/ΔT Ala-1 ([2]; CDCl3): –0.1 ppb/K | ΔδNH/ΔT Ile-4 ([2]; CDCl3): –3.5 ppb/K | ΔδNH/ΔT Ile-6 ([2]; CDCl3): –3.6 ppb/K | ΔδNH/ΔT Phe-2 ([2]; CDCl3): –10.2 ppb/K | ΔδNH/ΔT Ala-1 ([2]; DMSO-d6): –0.4 ppb/K | ΔδNH/ΔT Ile-4 ([2]; DMSO-d6): –1.7 ppb/K | ΔδNH/ΔT Ile-6 ([2]; DMSO-d6): –3.8 ppb/K | ΔδNH/ΔT Phe-2 ([2]; DMSO-d6): –4.2 ppb/K | H-D exchange rate Ala-1 (H-D exchange NMR): 57 min | H-D exchange rate Ile-4 (H-D exchange NMR): > 240 min | H-D exchange rate Ile-6 (H-D exchange NMR): 341 min | H-D exchange rate Phe-2 (H-D exchange NMR): 48 min
SMILES: CC[C@H](C)[C@@H]1NC(=O)[C@@H]2CCCN2C(=O)[C@H](Cc2ccccc2)NC(=O)[C@H](C)NC(=O)c2csc(n2)[C@H]([C@@H](C)CC)NC(=O)[C@@H]2CCCN2C1=O [SA-A1, Sanguinamide A] (cyclo(AFPIP[Ile(ψThz)]))
Cell count at 10 μM (U2OS cells): 103% | Induction at 10 μM (U2OS cells): 1.4% | Cell count at 30 μM (U2OS cells): 97% | Induction at 30 μM (U2OS cells): 32.6% | Cell count at 50 μM (U2OS cells): 88% | Induction at 50 μM (U2OS cells): 29.7% | ΔδNH/ΔT Ala-1 [3, 6]: 0.1 ppb/K | ΔδNH/ΔT Ile-4 [3, 6]: −3.1 ppb/K | ΔδNH/ΔT Ile-6 [3, 6]: −3.1 ppb/K | ΔδNH/ΔT Phe-2 [3, 6]: −9.1 ppb/K | ΔδNH/ΔT Ala-1 [3, 7]: 0.4 ppb/K | ΔδNH/ΔT Ile-4 [3, 7]: −1.5 ppb/K | ΔδNH/ΔT Ile-6 [3, 7]: −4.0 ppb/K | ΔδNH/ΔT Phe-2 [3, 7]: −4.2 ppb/K | H-D exchange rate Ala-1 [4]: 188 min | H-D exchange rate Ile-4 [4]: 6000 min | H-D exchange rate Ile-6 [4]: 1500 min | H-D exchange rate Phe-2 [4]: 380 min | bioavailability (F) [5]: 7%

CHI-IAM [1]: 33.97 ± 0.13
SMILES: CC[C@H](C)[C@@H]1NC(=O)[C@@H]2CCCN2C(=O)[C@H]([C@@H](C)CC)NC(=O)[C@@H]2CCCN2C(=O)[C@H](Cc2ccccc2)NC(=O)[C@H](C)NC(=O)[C@H](CS)NC1=O [SA-A3] (cyclo(AFPIPIC))
Cell count at 10 μM (U2OS cells): 102% | Induction at 10 μM (U2OS cells): 0.7% | Cell count at 30 μM (U2OS cells): 102% | Induction at 30 μM (U2OS cells): 1% | Cell count at 50 μM (U2OS cells): 98% | Induction at 50 μM (U2OS cells): 1%
